Test results as given in patent publication US20240092835A1, “NOVEL PEPTIDES CAPABLE OF ALTERING NK CELL ACTIVITY” (Massachusetts Institute of Technology, priority 2022, published 2024).
“Also recorded” adds a separate entry of the source. Where no end group is shown, it is not given here.

What was measured:
[1] = target: T1, HLA-E (Homo sapiens, UniProt P13747); test: HLA-E surface stabilization assay with RMA-S/HLA-E cells; format: cell-based; details: 30 μM peptide, 16 hours; for HLA-E surface expression stability (GeoMFI): anti-HLA-E antibody
T1 construct: expressed in transfected cells; host or cells: RMA-S/HLA-E cells (antigen processing-defective lymphoma cell line)
Procedure: HLA-E surface expression was assessed by measuring geometric mean fluorescence intensity (GeoMFI) in RMA-S cells following immunofluorescence staining with an anti-HLA-E antibody (Table 14). Increased GeoMFI was indicative of increased HLA-E surface expression stability following novel peptide exposures (FIG. 3).

[2] = target: CD94/NKG2A (Homo sapiens, UniProt P26715+Q13241); test: Steady-state surface plasmon resonance of peptide-HLA-E complex with CD94/NKG2A; format: binding; details: for Binding of peptide-HLA-E complexes to CD94/NKG2A normalized to a theoretical Rmax: steady-state SPR
Procedure: Binding affinity of novel peptides linked to HLA-E was determined using surface plasmon resonance (SPR), a methodology used to study protein-protein interactions (Tables 15-19). The peptide-HLA-E complex (generated as a single chain trimer) was immobilized on the sensor chip surface and CD94/NKG2A or CD94/NKG2C were flowed over. Steady-state surface plasmon resonance experiments were performed with a Biacore T200 instrument. CD94/NKG2x in HBS-EP+ buffer was injected as analyte in a concentration range of 0.1 μM to 102.4 μM and flow rate of 10 μL/min at 25° C. Data was fit with Prism 9.4 (GraphPad Software Inc; San Diego CA) to a “one site, specific binding” model. Series S CM5 chips were coupled to neutravidin and utilized. Biotinylated pMHC was immobilized at approximately 400 RU. KD values calculated by Biacore software are reported. Rmax, fit values were calculated by Biacore software. Rmax, theoretical values were calculated using the analyte/ligand mass ratio (0.66) multiplied by the amount of ligand coupled to the chip.

[3] = CD94/NKG2A concentration 0.1 μM
[4] = CD94/NKG2A concentration 0.2 μM
[5] = CD94/NKG2A concentration 0.4 μM
[6] = CD94/NKG2A concentration 0.8 μM
[7] = CD94/NKG2A concentration 1.6 μM
[8] = CD94/NKG2A concentration 3.2 μM
[9] = CD94/NKG2A concentration 6.4 μM
[10] = CD94/NKG2A concentration 12.8 μM
[11] = CD94/NKG2A concentration 25.6 μM
[12] = CD94/NKG2A concentration 51.2 μM
[13] = CD94/NKG2A concentration 102.4 μM
[14] = CD94/NKG2A analyte concentration 0.000 μM
[15] = CD94/NKG2A analyte concentration 0.100 μM
[16] = CD94/NKG2A analyte concentration 0.200 μM
[17] = CD94/NKG2A analyte concentration 0.400 μM
[18] = CD94/NKG2A analyte concentration 0.800 μM
[19] = CD94/NKG2A analyte concentration 1.600 μM
[20] = CD94/NKG2A analyte concentration 3.200 μM
[21] = CD94/NKG2A analyte concentration 6.400 μM
[22] = CD94/NKG2A analyte concentration 12.800 μM
[23] = CD94/NKG2A analyte concentration 25.600 μM
[24] = CD94/NKG2A analyte concentration 51.200 μM
[25] = CD94/NKG2A analyte concentration 102.400 μM

CD94/NKG2A, sequence (P26715 94-233 limits assumed): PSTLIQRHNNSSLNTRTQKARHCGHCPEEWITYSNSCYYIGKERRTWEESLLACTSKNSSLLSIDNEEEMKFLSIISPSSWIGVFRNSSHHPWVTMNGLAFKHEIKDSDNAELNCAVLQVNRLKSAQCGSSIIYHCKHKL
CD94/NKG2A, sequence (Q13241 32-179 limits assumed): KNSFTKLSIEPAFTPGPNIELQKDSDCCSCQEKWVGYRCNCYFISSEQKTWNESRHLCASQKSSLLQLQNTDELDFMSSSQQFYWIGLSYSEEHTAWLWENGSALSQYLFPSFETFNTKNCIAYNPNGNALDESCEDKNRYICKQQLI
T1 sequence (P13747 22-358): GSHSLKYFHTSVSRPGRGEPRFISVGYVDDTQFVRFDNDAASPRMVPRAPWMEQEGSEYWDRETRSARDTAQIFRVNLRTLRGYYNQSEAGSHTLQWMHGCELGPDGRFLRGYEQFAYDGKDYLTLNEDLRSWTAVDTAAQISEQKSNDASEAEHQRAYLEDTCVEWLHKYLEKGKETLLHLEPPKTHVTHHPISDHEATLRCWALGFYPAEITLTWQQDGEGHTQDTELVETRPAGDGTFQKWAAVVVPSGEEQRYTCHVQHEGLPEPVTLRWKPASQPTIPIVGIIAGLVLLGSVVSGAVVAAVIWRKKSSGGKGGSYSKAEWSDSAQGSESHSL
T1 sequence (P61769 21-119 partner): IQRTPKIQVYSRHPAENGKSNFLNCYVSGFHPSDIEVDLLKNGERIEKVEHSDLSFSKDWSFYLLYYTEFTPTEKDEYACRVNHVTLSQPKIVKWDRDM

TAPARTMFL [human13, TAPARTMFL]
HLA-E surface expression stabilization strength (in words) [1]: lower
HLA-E surface expression stability (GeoMFI) ([1]; Trial 1): 851 GeoMFI
HLA-E surface expression stability (GeoMFI) ([1]; Trial 2): 887 GeoMFI
HLA-E surface expression stability (GeoMFI) ([1]; Trial 3): 673 GeoMFI
HLA-E surface expression stability (GeoMFI) ([1]; Trial 4): 1187 GeoMFI
HLA-E surface expression stabilization strength, approximate GeoMFI ([1]; approximate value): approximately 1×10^3 GeoMFI
binding of peptide-HLA-E complex to CD94/NKG2A normalized to a fitted Rmax ([2]; CD94/NKG2A concentration 0 μM): 0.010
binding of peptide-HLA-E complex to CD94/NKG2A normalized to a fitted Rmax [2, 3]: 0.024
binding of peptide-HLA-E complex to CD94/NKG2A normalized to a fitted Rmax [2, 4]: 0.037
binding of peptide-HLA-E complex to CD94/NKG2A normalized to a fitted Rmax [2, 5]: 0.066
binding of peptide-HLA-E complex to CD94/NKG2A normalized to a fitted Rmax [2, 6]: 0.115
binding of peptide-HLA-E complex to CD94/NKG2A normalized to a fitted Rmax [2, 7]: 0.191
binding of peptide-HLA-E complex to CD94/NKG2A normalized to a fitted Rmax [2, 8]: 0.302
binding of peptide-HLA-E complex to CD94/NKG2A normalized to a fitted Rmax [2, 9]: 0.432
binding of peptide-HLA-E complex to CD94/NKG2A normalized to a fitted Rmax [2, 10]: 0.558
binding of peptide-HLA-E complex to CD94/NKG2A normalized to a fitted Rmax [2, 11]: 0.685
binding of peptide-HLA-E complex to CD94/NKG2A normalized to a fitted Rmax [2, 12]: 0.819
binding of peptide-HLA-E complex to CD94/NKG2A normalized to a fitted Rmax [2, 13]: 0.961
Binding of peptide-HLA-E complexes to CD94/NKG2A normalized to a theoretical Rmax [2, 14]: 0.006
Binding of peptide-HLA-E complexes to CD94/NKG2A normalized to a theoretical Rmax [2, 15]: 0.015
Binding of peptide-HLA-E complexes to CD94/NKG2A normalized to a theoretical Rmax [2, 16]: 0.023
Binding of peptide-HLA-E complexes to CD94/NKG2A normalized to a theoretical Rmax [2, 17]: 0.042
Binding of peptide-HLA-E complexes to CD94/NKG2A normalized to a theoretical Rmax [2, 18]: 0.074
Binding of peptide-HLA-E complexes to CD94/NKG2A normalized to a theoretical Rmax [2, 19]: 0.122
Binding of peptide-HLA-E complexes to CD94/NKG2A normalized to a theoretical Rmax [2, 20]: 0.193
Binding of peptide-HLA-E complexes to CD94/NKG2A normalized to a theoretical Rmax [2, 21]: 0.277
Binding of peptide-HLA-E complexes to CD94/NKG2A normalized to a theoretical Rmax [2, 22]: 0.357
Binding of peptide-HLA-E complexes to CD94/NKG2A normalized to a theoretical Rmax [2, 23]: 0.439
Binding of peptide-HLA-E complexes to CD94/NKG2A normalized to a theoretical Rmax [2, 24]: 0.524
Binding of peptide-HLA-E complexes to CD94/NKG2A normalized to a theoretical Rmax [2, 25]: 0.615

TGPWRSLWI [human3, TGPWRSLWI]
HLA-E surface expression stability (GeoMFI) ([1]; Trial 1): 510 GeoMFI
HLA-E surface expression stability (GeoMFI) ([1]; Trial 2): 428 GeoMFI
HLA-E surface expression stability (GeoMFI) ([1]; Trial 3): 421 GeoMFI
HLA-E surface expression stability (GeoMFI) ([1]; Trial 4): 596 GeoMFI
HLA-E surface expression stabilization strength (in words) ([1]; listed as GTF3C5293-301): closest to the experimental negative control (DMSO); also recorded: lowest
binding of peptide-HLA-E complex to CD94/NKG2A normalized to a fitted Rmax ([2]; CD94/NKG2A concentration 0 μM): 0.013
binding of peptide-HLA-E complex to CD94/NKG2A normalized to a fitted Rmax [2, 3]: 0.015
binding of peptide-HLA-E complex to CD94/NKG2A normalized to a fitted Rmax [2, 4]: 0.019
binding of peptide-HLA-E complex to CD94/NKG2A normalized to a fitted Rmax [2, 5]: 0.030
binding of peptide-HLA-E complex to CD94/NKG2A normalized to a fitted Rmax [2, 6]: 0.051
binding of peptide-HLA-E complex to CD94/NKG2A normalized to a fitted Rmax [2, 7]: 0.086
binding of peptide-HLA-E complex to CD94/NKG2A normalized to a fitted Rmax [2, 8]: 0.145
binding of peptide-HLA-E complex to CD94/NKG2A normalized to a fitted Rmax [2, 9]: 0.231
binding of peptide-HLA-E complex to CD94/NKG2A normalized to a fitted Rmax [2, 10]: 0.336
binding of peptide-HLA-E complex to CD94/NKG2A normalized to a fitted Rmax [2, 11]: 0.472
binding of peptide-HLA-E complex to CD94/NKG2A normalized to a fitted Rmax [2, 12]: 0.639
binding of peptide-HLA-E complex to CD94/NKG2A normalized to a fitted Rmax [2, 13]: 0.827
Binding of peptide-HLA-E complexes to CD94/NKG2A normalized to a theoretical Rmax [2, 14]: 0.004
Binding of peptide-HLA-E complexes to CD94/NKG2A normalized to a theoretical Rmax [2, 15]: 0.005
Binding of peptide-HLA-E complexes to CD94/NKG2A normalized to a theoretical Rmax [2, 16]: 0.006
Binding of peptide-HLA-E complexes to CD94/NKG2A normalized to a theoretical Rmax [2, 17]: 0.009
Binding of peptide-HLA-E complexes to CD94/NKG2A normalized to a theoretical Rmax [2, 18]: 0.015
Binding of peptide-HLA-E complexes to CD94/NKG2A normalized to a theoretical Rmax [2, 19]: 0.026
Binding of peptide-HLA-E complexes to CD94/NKG2A normalized to a theoretical Rmax [2, 20]: 0.044
Binding of peptide-HLA-E complexes to CD94/NKG2A normalized to a theoretical Rmax [2, 21]: 0.070
Binding of peptide-HLA-E complexes to CD94/NKG2A normalized to a theoretical Rmax [2, 22]: 0.102
Binding of peptide-HLA-E complexes to CD94/NKG2A normalized to a theoretical Rmax [2, 23]: 0.143
Binding of peptide-HLA-E complexes to CD94/NKG2A normalized to a theoretical Rmax [2, 24]: 0.194
Binding of peptide-HLA-E complexes to CD94/NKG2A normalized to a theoretical Rmax [2, 25]: 0.250
